Results on 4 molecules are retold here after patent US20060160773A1, “Combretastatin derivatives with cytotoxic action” (priority 2003, published 2006).

One may read the IC50 as the concentration that gives 50% inhibition.

For data set [1] the following is noted: Cancer Res., 62:3408-3416, 2002; cited from earlier work.
The subject of a further data set is MeWo human melanoma. As to the kind of experiment: Cytotoxicity test (sulforodamine B), MeWo. The class given is cell-based. Conditions: Homo sapiens, read-out: IC50 ± SE. As for the experimental part: (§1) The cytotoxic effect of our derivatives was evaluated in series of human and murine cell lines.
(§2) The following cell lines, purchased from ATCC, were cultured according to the manufacturer's instructions: MeWo human melanoma, NCI-H460 human lung cancer, LoVo human colon adenocarcinoma, PC3 human prostate carcinoma, MES-SA human uterine sarcoma, HCT 116 human colorectal carcinoma, MCF-7 human breast carcinoma.
(§3) For the cytotoxicity test the cells were seeded at variable densities according to cell type in 96-well plates in normal culture medium (200 μl/well) and incubated for 24 hours at 37° C. On the next day, the study substances were added at scalar concentrations and the cells were incubated for a further 24 hours at 37° C. in a humidified atmosphere containing 5% CO2. At the end of the incubation period the medium containing the substances was removed and three washings with PBS were performed. At the end of the washings 200 μl/well of fresh medium were added and the plates were incubated at 37° C. for a further 48 hours. At the end of this incubation period the culture medium was removed by overturning the plates and 200 μl/well of PBS and 50 μl of 80% cold trichloroacetic acid (TCA) were added. The plates were then incubated in ice. After 1 h the TCA was removed, the plates were washed three times by immersion in distilled water and dried first on blotting paper and then in the oven. 200 μl of 0.4% sulforodamine B in 1% acetic acid were then added to all wells. The plates were incubated at room temperature for a further 30 minutes. The sulforodamine B was removed by overturning, the plates were washed three times by immersion in 1% acetic acid, and then dried first on blotting paper and then in the oven. 200 μl of Tris base 10 mM were then added to all wells and the plates were placed under stirring for at least 20 min. The optical density was measured by spectrophotometric readout at 540 nm.
(§4) In the same table are reported the IC50 of ST2897, ST2898 and ST2899 on BMEC.

Data set [2] has as its system HT29 human colon adenocarcinoma line. In words: Cytotoxicity test (sulforodamine B), HT29. The format is cell-based. To be noted: Homo sapiens, HT-29, read-out: IC50 ± SE. The procedure: as §1
(§5) The M109 murine lung cancer line, the HT29 human colon adenocarcinoma line, the A2780 human ovarian carcinoma line, obtained from the Milan Tumour Institute, were cultured in RPMI containing 10% FBS and antibiotics.
as §3, §4

In data set [3] the test system is M109 murine lung cancer line. As to the kind of experiment: Cytotoxicity test (sulforodamine B), M109. The format is cell-based. Conditions: Mus musculus, 24 h exposure, 48 h recovery, SRB. The procedure:
as §1, §5
as §3, with “200 μl of 0.4% sulforodamine B in 1% acetic acid were then added to all wells. The plates were incubated at room temperature for a further 30 minutes. The sulforodamine B was removed by overturning, the plates were washed three times by immersion in 1% acetic acid, and then dried first on blotting paper and then in the oven. 200 μl of Tris base 10 mM were then added to all wells and the plates were placed under stirring for at least 20 min.” left out, “nm. […]” for “nm.”

The subject of data set [4] is HCT 116 human colorectal carcinoma. In words: Cytotoxicity test (sulforodamine B), HCT 116. To be noted: Homo sapiens, HCT-116, read-out: IC50 ± SE. The format is cell-based. As for the experimental part: as §1, §2, §3, §4
Data set [5] relates to NCI-H460 human lung cancer. As to the kind of experiment: Cytotoxicity test (sulforodamine B), NCI-H460. The class given is cell-based. Conditions: Homo sapiens, NCI-H460, read-out: IC50 ± SE. The procedure: as §1, §2, §3, §4
In data set [6] the test system is PC3 human prostate carcinoma. As to the kind of experiment: Cytotoxicity test (sulforodamine B), PC3. The class given is cell-based. Conditions: 24 h exposure, 48 h recovery, SRB. The procedure: as §1, §2
(§6) For the cytotoxicity test the cells were seeded at variable densities according to cell type in 96-well plates in normal culture medium (200 μl/well) and incubated for 24 hours at 37° C. On the next day, the study substances were added at scalar concentrations and the cells were incubated for a further 24 hours at 37° C. in a humidified atmosphere containing 5% CO2. At the end of the incubation period the medium containing the substances was removed and three washings with PBS were performed. At the end of the washings 200 μl/well of fresh medium were added and the plates were incubated at 37° C. for a further 48 hours. At the end of this incubation period the culture medium was removed by overturning the plates and 200 μl/well of PBS and 50 μl of 80% cold trichloroacetic acid (TCA) were added. The plates were then incubated in ice. […] The optical density was measured by spectrophotometric readout at 540 nm. […]

In data set [7] the test system is A2780 human ovarian carcinoma line. As to the kind of experiment: Cytotoxicity test (sulforodamine B), A2780. The class given is cell-based. To be noted: Homo sapiens, A2780, read-out: IC50 ± SE. As for the experimental part: as §1, §5, §3, §4
In data set [8] the test system is tubulin rich in microtubule-associated proteins (MAP). In words: Tubulin polymerisation inhibition test. The class given is biochemical. To be noted: vs not treated control; mean of 3 independent determinations; concentration not given. The procedure:
The tubulin polymerisation test in the presence of ST2151 was performed as described by Shiff et al. (Biochemistry, 1981, 20: 3247-3252) with a number of modifications. In brief, tubulin rich in microtubule-associated proteins (MAP) was diluted to the concentration of 3 mg/ml in PEM buffer [100 mM PIPES (pH 6.9), 1 mM EGTA and 1 mM MgCl2] containing 1 mM GTP (GPEM), and maintained in ice. The solution was placed at 37° C. and polymerisation was monitored by measuring absorbance at 340 nm every 25 seconds with a spectrophotometer equipped with an electronic temperature control device (Cobas-Mira Analyzer). After 5 minutes, when the polymerised tubulin had reached a steady state, 5 μM Taxol, 1.35 μM Colcemid, or ST2151 were added and the absorbance measurements were taken for a further 15 min. The IC50 values were determined by non-linear regression analysis using “Prism GraphPad” software. Results were expressed as % inhibition of tubulin polymerization vs not treated control.
The value indicated in Table 2 is the mean of 3 independent determinations.

Data set [9] has as its system EA-hy926, an immortalised hybridoma of HUVEC and adenocarcinoma cells. In words: Cytotoxicity test (sulforodamine B), EA-hy926. The format is cell-based. Conditions: Homo sapiens, EA.hy 926; EAHY.926; 24 h exposure, 48 h recovery, SRB. As for the experimental part: as §1
(§7) Bovine microcirculatory endothelial cells (BMEC), isolated from bovine adrenal glands, were maintained in culture in DMEM containing 20% FBS, 50 μg/ml of bovine brain extract (BBE), 50 units/ml of heparin (SIGMA), 100 units/ml of gentami-cin (SIGMA) and 10 mg/ml of L-glutamine (Hyclone). EA-hy926, an immortalised hybridoma of HUVEC and adenocarcinoma cells, obtained from the University of Bari Department of Biomedical Sciences and Human Oncology, was cultured in DMEM added with 10% FBS and gentamicin.
as §6, with “hours.” for “hours. At the end of this incubation period the culture medium was removed by overturning the plates and 200 μl/well of PBS and 50 μl of 80% cold trichloroacetic acid (TCA) were added. The plates were then incubated in ice.”

The test system of data set [10] is LoVo human colon adenocarcinoma. In words: Cytotoxicity test (sulforodamine B), LoVo. To be noted: 24 h exposure, 48 h recovery, SRB. The class given is cell-based. The procedure: as §1, §2, §6
The test system of data set [11] is Bovine microcirculatory endothelial cells (BMEC). As to the kind of experiment: Cytotoxicity test (sulforodamine B), BMEC. The class given is cell-based. To be noted: Bos taurus, Endothelial cell, read-out: IC50 ± SE. As for the experimental part:
as §1, §7, §3, §4

For data set [12], the system named is B16/BL6 murine melanoma line. As to the kind of experiment: Cytotoxicity test (sulforodamine B), B16/BL6. Conditions: Mus musculus, B16-BL6, read-out: IC50 ± SE. The format is cell-based. The procedure: as §1
The B16/BL6 murine melanoma line, obtained from the M. Negri Institute in Milan, was cultured in DMEM containing 10% FBS and antibiotics.
as §3, §4

Data set [13] has as its system MES-SA human uterine sarcoma. As to the kind of experiment: Cytotoxicity test (sulforodamine B), MES-SA. The class given is cell-based. To be noted: Homo sapiens, MES-SA, read-out: IC50 ± SE. The procedure: as §1, §2, §3, §4
Data set [14] concerns MCF-7 human breast carcinoma. In words: Cytotoxicity test (sulforodamine B), MCF-7. The format is cell-based. To be noted: Homo sapiens, MCF7, read-out: IC50 ± SE. The procedure: as §1, §2, §3, §4
Data set [15] in a line: Evaluation of cardiovascular parameters (blood pressure, heart rate) in anaesthetised rats. The format is in vivo. To be noted: 20 or 40 mg/kg injected in the jugular vein, anaesthetised Wistar rats (FIG. 1). As for the experimental part: Combretastatin A4, its prodrug ST2494 and our water soluble selected compounds ST2495 and ST2496, diluted at the doses of 20 or 40 mg/kg in saline solution or for combretastatin A4 in 5% DMSO, were injected in the jugular vein of Wistar rats anaesthetised with 55 mg/kg Nembutal. The parameter considered were blood pressure and heart rate.

For another data set, the system named is cell growth. To be noted: background statement; cited from earlier work.
Data set [16] concerns Human umbilical vein endothelial cells (HUVEC). As to the kind of experiment: Cytotoxicity test (sulforodamine B), HUVEC. The format is cell-based. To be noted: Homo sapiens, read-out: IC50 ± SE. The procedure: as §1
Human umbilical vein endothelial cells (HUVEC), from the BioWhittaker company, were maintained in EGM-2 culture medium (BioWhittaker).
as §3, §4

For `COc1ccc(/C=C\c2cc(OC)c(OC)c(OC)c2)cc1OP(=O)(O)O` [combretastatin A4-P], the “side effects in Phase I study” value in [1] is “episodes of dose-limiting toxicity, including cases of acute coronary syndrome”.

As to `COc1cc(/C=C\c2cc(O)c3ccoc3c2)cc(OC)c1OC` [ST2179, Cis-6-[2-(3,4,5-trimethoxy-phenyl)-vinyl]-benzofuran-4-ol], the IC50 in the data set on MeWo human melanoma was 71 ± 17 nM; in [2], 990 ± 40 nM; in [3] it was 93 ± 6 nM; in data set [4], 54 ± 9 nM; in data set [5], 53 ± 1.3 nM; in data set [6], 100 ± 0.01 nM. In addition, the concentration for half-maximal inhibition (IC50) was determined as 50 ± 2 nM in data set [7]; 40 ± 3.9 nM in data set [9]; 490 ± 0.04 nM in data set [10]; 49 ± 1 nM in data set [11]; 44 ± 3.8 nM in data set [12]; 40 ± 4 nM in [13]. For the same molecule, the IC50 in data set [14] amounted to 38 ± 3 nM. Further, the “% inhibition of tubulin polymerization” value in data set [8] is reported as 44.0%.

As to `COc1ccc(/C=C\c2cc(OC)c(OC)c(OC)c2)cc1O` [Combretastatin A4, Combretastatin A-4, reference compound], in data set [15], the blood pressure entry is listed as “significant increase in blood pressure” and the heart rate result is “progressive decrease of heart rate”. In addition, the “concentration inhibiting cell growth” value in the data set with cell growth is listed as “of the order of nanomoles”.

Turning to `COc1cc(/C=C\c2cc(O)c3ccsc3c2)cc(OC)c1OC` [ST2151, Cis-6-[2-(3,4,5-trimethoxy-phenyl)-vinyl]-benzo[b]thiophen-4-ol], the IC50 is 68 ± 5 nM in the data set with MeWo human melanoma; 900 ± 65 nM in [2]; 490 ± 30 nM in [3]; 84 ± 3.8 nM in [4]; 74 ± 2.9 nM in data set [5]; 120 ± 0.01 nM in data set [6]. Besides, the IC50 in [7] was found to be 70 ± 2 nM; in [16] it was 49 ± 0.64 nM; in data set [9], 52 ± 4.9 nM; in data set [10], 360 ± 0.01 nM; in [11], 87 ± 1 nM; in data set [12], 85 ± 0.5 nM. Moreover, the IC50 amounted to 86 ± 10 nM in data set [13] and 66 ± 2.7 nM in [14]. Further, the “% inhibition of tubulin polymerization” value in data set [8] stood at 37.1%.
